Measured values from patent publication EP1787679A1, “Use of compounds binding to the sigma receptor for the treatment of diabetes-associated pain” (LABORATORIOS DEL DR. ESTEVE, S.A., priority 2005, dated 2007).

Tested on: STZ-induced mice
Test: von-Frey test, mechanical allodynia in streptozotocin (STZ)-induced diabetic mice
Format: in vivo
Conditions: paw withdrawal response to von-Frey filaments
Excerpt: The pancreatic β-cell cytotoxic agent STZ is widely used to induce diabetes in rodents. The glucosamine-nitrosourea compound STZ is taken up into the insulin-producing β-cells of the islets of Langerhan's via the GLUT-2 glucose transporter. The cytotoxic effect of STZ is mediated through a decrease in NAD levels, and the formation of intracellular free radicals leading to various toxic effects, including DNA-strand breaks (Schnedl et al., 1994). […] STZ-induced diabetic rodents show common features of human diabetes that include damage to the eye, kidney, blood vessels, and nervous system. Diabetic neuropathic pain occurs mainly due to the damage in the nervous system (Sima and Sugimoto, 1999).
Method: In the present study, diabetes is induced in mice by a single i.v. injection of STZ (200 mg/kg) as reported previously (Kamei et al., 1991; Rashid and Ueda, 2002). […] The plasma glucose level in the mice is measured in blood samples obtained from tail vein. […]
Thermal hyperalgesia and mechanical allodynia is measured at different time points (1-21 days) after STZ injection. Mechanical allodynia is measured using von-Frey filaments, a well-established method known by those skilled in the art, where the paw withdrawal response is measured. Similarly, thermal hyperalgesia is measured as the latency to paw withdrawal evoked by exposing the right hind paw to a thermal stimulus. […]

## CN1CCN(CCc2ccc(Cl)c(Cl)c2)CC1 [BD-1063, 1-(3,4-dichlorophenethyl)-4-methylpiperazine]
  mechanical allodynia in the von-Frey test: significantly antagonizes mechanical allodynia
